Reference: ChEMBL document CHEMBL3804791, “Comparison of small molecules and oligonucleotides that target a toxic, non-coding RNA” (Bioorg Med Chem Lett, 2016)
The source made the active and inactive calls. No cut-off for these calls is given here.

How the values were obtained:
C2C12 [1] = assay: Effect on BIN1 splicing patterns in mouse C2C12 cells at 0.1 to 10 uM by RT-qPCR method; type: ADME, cell-based; details: c2c12, 10 µM
[2] = Binding affinity to r(CCUG)300 RNA (unknown origin) in mouse C2C12 cells transfected with BIN1 assessed as rescue of BIN1 splicing defect after 72 hrs by PCR analysis; type: cell-based
C2C12 [3] = assay: Binding affinity to r(CCUG)300 RNA (unknown origin) in mouse C2C12 cells transfected with BIN1 splicing mini gene assessed as rescue of BIN1 splicing defect at 100 nM after 72 hrs by PCR analysis; type: cell-based
[4] = Binding affinity to 5-biotin-r(CCUG)12 RNA (unknown origin) assessed as inhibition of r(CCUG)12/His6-tagged MBNL1 complex formation preincubated for 15 mins followed by addition of His6-tagged MBNL1 by TR-FRET assay
[5] = Binding affinity to 5-biotin-r(CCUG)12 RNA (unknown origin) assessed as disruption of 5-biotin-r(CCUG)12/His6-tagged MBNL1 complex incubated for 15 mins by TR-FRET assay
C2C12 [6] = assay: Binding affinity to r(CCUG)300 RNA (unknown origin) in mouse C2C12 cells transfected with BIN1 assessed as rescue of BIN1 splicing defect at 10 uM after 72 hrs by PCR analysis; type: cell-based
C2C12 [7] = assay: Effect on BIN1 splicing patterns in mouse C2C12 cells at 1 to 20 uM by RT-qPCR method; type: ADME, cell-based; details: c2c12, 20 µM
C2C12 [8] = assay: Effect on r(CCUG)300 levels in mouse C2C12 cells at 10 uM by RT-qPCR method; type: functional, cell-based

Compound | Activity (C2C12 [1]) | IC50 [4] [nM] | IC50 [5] [nM] | Activity (C2C12 [6]) [%] | Activity (C2C12 [8]) | also measured
C#CNC(=O)CC(=O)NC[C@H]1O[C@H](O[C@@H]2[C@@H](O)[C@H](O[C@@H]3O[C@@H](CN=[N+]=[N-])[C@H](O)[C@@H](N)[C@@H]3O)[C@@H](N)C[C@H]2N)[C@H](O)[C@@H](O)[C@@H]1O (stereo in doubt) | Non-toxic |  |  |  |  | IC50 [2]: 80 nM; Activity (C2C12 [3]): 50%
Nc1ccn([C@@H]2C[C@@H](OP(=O)(O)OC[C@H]3O[C@@H](n4cnc5c(N)ncnc54)C[C@@H]3OP(=O)(O)OC[C@H]3O[C@@H](n4cnc5c(=O)[nH]c(N)nc54)C[C@@H]3OP(=O)(O)OC[C@H]3O[C@@H](n4cnc5c(=O)[nH]c(N)nc54)C[C@@H]3OP(=O)(O)OC[C@@H]3O[C@H](n4ccc(N)nc4=O)C[C@H]3OP(=O)(O)OC[C@@H]3O[C@H](n4cnc5c(N)ncnc54)C[C@H]3OP(=O)(O)OC[C@@H]3O[C@H](n4cnc5c(=O)[nH]c(N)nc54)C[C@H]3OP(=O)(O)OC[C@H]3O[C@@H](n4cnc5c(=O)[nH]c(N)nc54)C[C@@H]3O)[C@H](COP(=O)(O)O)O2)c(=O)n1 |  | 700 | 830 |  |  | 
C#CCCCC(=O)NC[C@@H]1O[C@@H](O[C@H]2[C@H](O)[C@@H](O[C@@H]3O[C@@H](CO)[C@H](O)[C@@H](N)[C@@H]3O)[C@H](N)C[C@@H]2N)[C@@H](O)[C@H](O)[C@H]1O |  |  |  | 15 | inactive | Activity (C2C12 [7]): Non-toxic
Nc1ccn([C@@H]2C[C@@H](OP(=O)(O)OC[C@H]3O[C@@H](n4cnc5c(N)ncnc54)C[C@@H]3OP(=O)(O)OC[C@H]3O[C@@H](n4cnc5c(=O)[nH]c(N)nc54)C[C@@H]3OP(=O)(O)OC[C@@H]3O[C@H](n4cnc5c(=O)[nH]c(N)nc54)C[C@H]3OP(=O)(O)OC[C@@H]3O[C@H](n4ccc(N)nc4=O)C[C@H]3OP(=O)(O)OC[C@H]3O[C@@H](n4cnc5c(N)ncnc54)C[C@@H]3OP(=O)(O)OC[C@H]3O[C@@H](n4cnc5c(=O)[nH]c(N)nc54)C[C@@H]3OP(=O)(O)OC[C@H]3O[C@@H](n4cnc5c(=O)[nH]c(N)nc54)C[C@@H]3O)[C@H](COP(=O)(O)O[C@H]3C[C@H](n4cnc5c(=O)[nH]c(N)nc54)O[C@@H]3COP(=O)(O)O[C@@H]3C[C@@H](n4cnc5c(=O)[nH]c(N)nc54)O[C@H]3COP(=O)(O)O[C@@H]3C[C@@H](n4cnc5c(N)ncnc54)O[C@H]3COP(=O)(O)O[C@H]3C[C@H](n4ccc(N)nc4=O)O[C@@H]3COP(=O)(O)O)O2)c(=O)n1 |  | 300 | 470 |  |  | 
C#CCCCC(=O)NC[C@H]1O[C@H](O[C@H]2[C@H](O)[C@@H](O[C@H]3O[C@H](CN=[N+]=[N-])[C@@H](O)[C@H](N)[C@H]3O)[C@H](N)C[C@@H]2N)[C@H](O)[C@@H](O)[C@@H]1O |  |  |  |  | inactive | 
CCCN(CC(=O)N(CCC)CC(=O)N(CCC)CC(=O)N(CCC)CC(=O)N(CCCn1cc(CCCC(=O)NC[C@H]2O[C@H](O[C@@H]3[C@@H](O)[C@H](O[C@@H]4O[C@@H](CO)[C@H](O)[C@@H](N)[C@@H]4O)[C@@H](N)C[C@H]3N)[C@H](O)[C@@H](O)[C@@H]2O)nn1)CC(N)=O)C(=O)CNCCCn1cc(CCCC(=O)NC[C@@H]2O[C@@H](O[C@@H]3[C@@H](O)[C@H](O[C@@H]4O[C@@H](CO)[C@H](O)[C@@H](N)[C@@H]4O)[C@@H](N)C[C@H]3N)[C@@H](O)[C@H](O)[C@H]2O)nn1 | Non-toxic |  |  | 60 | inactive | 
